System: rat livers
Assay: Partial freezing of rat livers with 12% glycerol with or without ice modulators, SNMP recovery
Source text: Experimental design: FIG. 39 outlines the rat liver partial freezing protocol in eight consecutive steps: (1) liver procurement, (2) preconditioning during SNMP, (3) CPA preloading during hypothermic machine perfusion (HMP), (4) loading of final storage solution and ice modulators during HMP, (5) partial freezing of rat liver, (6) thawing of rat liver, (7) unloading of CPAs during HMP, and (8) functional recovery of frozen rat livers during SNMP.
Within this protocol, we first compared partially frozen livers at −10° C. (n=4 livers) and −15° C. (n=9 livers) with 12% glycerol. Upon finding minimal differences between these two groups, we combined them as a control and compared them to livers partially frozen with 0.5 mg/ml (0.05% w/v) of AFGP (n=4 livers) or 0.1% X-1000/0.2% Z-1000 (total, 0.3% w/v; n=4 livers) ice modulating agents added to the preservation solution. After freezing, liver viability on SNMP was compared between the 12% glycerol control group and the two ice modulated groups.
Partial freezing protocol: The rat liver perfusion system involved perfusion through the cannulated portal vein (PV) with regulation of pressure, flow, and temperature. Detailed set-up of the perfusion system has been previously described (see, e.g., ref. 34). The total rat hepatectomy protocol was approved by the Institutional Animal Care and Use Committee (IACUC) of Massachusetts General Hospital (Boston, MA). Livers were procured from male Lewis rats (250-300 g, age 10-12 weeks. Charles River Laboratories, Wilmington, MA) (FIG. 39, step 1). The bile duct was isolated and cannulated, and the rats were heparinized with 30U sodium heparin. PV splenic and gastric branches, as well as the hepatic artery were ligated prior to cannulation. The PV was subsequently cannulated with a 16-gauge catheter and immediately flushed with 40 ml of heparinized saline (1000U/ml at room temperature). The liver was then freed from all peritoneal attachments, flushed with an additional 20 ml of heparinized saline. After procurement, the liver was weighed, and machine perfusion was immediately initiated.
Preconditioning during SNMP was initiated at 21° C. with a flow rate of 5 ml/min (FIG. 39, step 2). […] The rat livers were perfused for 1 hour with 500 ml of preconditioning solution including Williams E, 200 U/l of insulin, 2% w/v PEG, 50 g/L BSA, 100 mM 3-O-methylglucose (3-OMG), 10,000 U/l of heparin, 24 mg/L of dexamethasone, 25 mg/ml of hydrocortisone, 40,000 μg/l of penicillin, and 40,000 U/l of streptomycin and sodium bicarbonate as needed to maintain a physiological pH (see Table 9 for composition of all solutions).
After 1 hour of preconditioning during SNMP, the temperature was decreased to 4° C. at a rate of ˜1° C./min. Flow rates were gradually adjusted as necessary to ensure a maximum perfusion pressure of 3-5 mmHg during HMP. The SNMP preconditioning solution was switched to 500 ml CPA preloading solution at 4° C. (including Williams E, 200 U/l of insulin, 2% PEG, 50 g/L BSA, 100 mM 3-OMG, 30 mM raffinose, 3% hydroxyethyl starch (HES), 6% glycerol, 4000 U/l of heparin, 24 mg/l of dexamethasone, 25 mg/ml of hydrocortisone, 40,000 μg/l of penicillin, 40,000 U/l of streptomycin, and sodium bicarbonate as needed to maintain a physiological pH) (FIG. 39, step 3; Table 9). HMP was continued for 1 hour to ensure complete equilibration of solution throughout the liver parenchyma. […]

[1] = after SNMP recovery, pooled 1 and 5 days

Structure (SMILES): OCC(O)CO [GLY, glycerol]
- mean perfusate lactate (12% glycerol only, pooled 1 and 5 days, at time zero): 1.17 ± 0.61 mmol/L
- function of livers frozen at −10° C. vs −15° C. (perfusion metrics, weight gain, ATP, EC) (12% glycerol, pooled 1 and 5 days): not functionally different
- H&E staining of liver parenchyma (after 1 and 5 day partial freezing): sinusoidal damage and compression, peri-portal endothelial destruction
- TUNEL staining (after 1 and 5 days of frozen storage): remarkably less TUNEL staining
- mean ATP [1]: 0.187 ± 0.075 µg/mL
- mean energy charge (EC), (ATP+1/2ADP)/(ATP+ADP+AMP) [1]: 0.066±0.032
- final mean weight gain (end of SNMP recovery vs weight after procurement, pooled 1 and 5 days): 26.9±15.3%
- mean vascular resistance (pooled 1 and 5 days, at 0 hours): 0.528±0.39 mmHg/ml/min
- mean perfusate potassium (pooled 1 and 5 days, at 1 hour): 6.5 ± 1.01 mmol/L

From patent US20240268372A1, “Methods and Compositions for Extending Organ and Tissue Preservation” (The General Hospital Corporation, priority 2021, published 2024)
